“And” between values parts separate entries of the source, which are not always exact repeats. Equal entries are not always repeated. Toxic doses and inconclusive results are not listed.
Test system: L1210 leukemia ip in BDF1 mice, survival T/C
Assay: NCI In Vivo Anticancer Drug Screen. Data for tumor model L1210 Leukemia (intraperitoneal) in B6D2F1 (BDF1) mice
Conditions: endpoint: mean survival time, higher = longer survival
In short: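 Ratio derived from survival: compound-dosed mice over vehicle-dosed mice, all bearing a transplantable tumor.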

[1] = dose: 100.0 mg/kg/injection, schedule: Q01DX005 (ip), vehicle: saline
[2] = dose: 200.0 mg/kg/injection, schedule: Q01DX005 (ip), vehicle: saline
[3] = dose: 100.0 mg/kg/injection, schedule: Q01DX009 (ip), vehicle: saline
[4] = dose: 100.0 mg/kg/injection, schedule: Q04DX003 (ip), vehicle: saline
[5] = dose: 200.0 mg/kg/injection, schedule: Q01DX009 (ip), vehicle: saline
[6] = dose: 200.0 mg/kg/injection, schedule: Q04DX003 (ip), vehicle: saline
[7] = dose: 400.0 mg/kg/injection, schedule: Q01DX009 (ip), vehicle: saline
[8] = dose: 400.0 mg/kg/injection, schedule: Q04DX003 (ip), vehicle: saline
[9] = dose: 100.0 mg/kg/injection, schedule: Q01DX009 (ip), vehicle: Klucel (hydroxypropylcellulose) (HPC)
[10] = dose: 200.0 mg/kg/injection, schedule: Q01DX009 (ip), vehicle: Klucel (hydroxypropylcellulose) (HPC)
[11] = dose: 400.0 mg/kg/injection, schedule: Q01DX009 (ip), vehicle: Klucel (hydroxypropylcellulose) (HPC)
[12] = dose: 50.0 mg/kg/injection, schedule: Q01DX009 (ip), vehicle: saline with Tween-80
[13] = dose: 100.0 mg/kg/injection, schedule: Q01DX009 (ip), vehicle: saline with Tween-80
[14] = dose: 200.0 mg/kg/injection, schedule: Q01DX009 (ip), vehicle: saline with Tween-80
[15] = dose: 25.0 mg/kg/injection, schedule: Q01DX009 (ip), vehicle: saline with Tween-80
[16] = dose: 100.0 mg/kg/injection, schedule: Q04DX003 (ip), vehicle: saline with Tween-80
[17] = dose: 100.0 mg/kg/injection, schedule: Q01DX001 (ip), vehicle: saline
[18] = dose: 200.0 mg/kg/injection, schedule: Q01DX001 (ip), vehicle: saline
[19] = dose: 400.0 mg/kg/injection, schedule: Q01DX001 (ip), vehicle: saline
[20] = dose: 100.0 mg/kg/injection, schedule: Q01DX001 (ip), vehicle: carboxymethylcellulose (CMC)
[21] = dose: 200.0 mg/kg/injection, schedule: Q01DX001 (ip), vehicle: carboxymethylcellulose (CMC)
[22] = dose: 400.0 mg/kg/injection, schedule: Q01DX001 (ip), vehicle: carboxymethylcellulose (CMC)
[23] = dose: 200.0 mg/kg/injection, schedule: Q04DX003 (ip), vehicle: saline with Tween-80
[24] = dose: 400.0 mg/kg/injection, schedule: Q04DX003 (ip), vehicle: saline with Tween-80

In the case of `CC1(C)OC2C(COC(N)=O)OC(n3cnc4c(=O)[nH]c(N)nc43)C2O1` (stereo not given), the T/C [1] is reported as 105 % of control and the T/C [2] is reported as 103 % of control.
For `NC(=O)CC(N)c1nn[nH]n1` (stereo not given), the T/C [3] was 89 % of control, the T/C [4] was 97 % of control and the T/C [5] was 98 % of control. For the same compound, the T/C [6] was 100 % of control, the T/C [7] was 102 % of control and the T/C [8] was 103 % of control.
In the case of `COc1ccc2c(c1)CN(S(=O)(=O)c1ccc(C)cc1)c1ccccc1C2=O`, the T/C [3] is reported as 89 % of control, the T/C [5] is reported as 96 % of control and the T/C [7] is reported as 89 % of control.
For `Fc1nc(F)nc(F)n1`, the T/C (dose: 12.0 mg/kg/injection, schedule: Q01DX009 (ip), vehicle: Klucel (hydroxypropylcellulose) (HPC)) was 89 % of control, the T/C (dose: 25.0 mg/kg/injection, schedule: Q01DX009 (ip), vehicle: Klucel (hydroxypropylcellulose) (HPC)) was 94 % of control and the T/C (dose: 50.0 mg/kg/injection, schedule: Q01DX009 (ip), vehicle: Klucel (hydroxypropylcellulose) (HPC)) was 112 % of control. For the same compound, the T/C [4] was 90 % of control, the T/C [6] was 100 % of control and the T/C [8] was 102 % of control.
`CC(=O)OC1CC(n2cc(C)c(=O)[nH]c2=O)OC1CO` (stereo not given) was tested, and the T/C [1] was 112 % of control and the T/C [2] was 109 % of control.
With `CC(=O)Nc1ccc(OC(=O)Nc2cccc(Cl)c2Cl)cc1` the T/C [9] was 102 % of control, the T/C [10] was 101 % of control and the T/C [11] was 97 % of control.
In the case of `Cc1ccc2nc(N=C(N)N)[nH]c2c1`, the T/C (dose: 75.0 mg/kg/injection, schedule: Q01DX001 (ip), vehicle: saline) is reported as 93 % of control and the T/C (dose: 150.0 mg/kg/injection, schedule: Q01DX001 (ip), vehicle: saline) is reported as 94 % of control.
In the case of `Cc1ccc(S(=O)(=O)Cl)c(Cl)c1`, the T/C [12] is reported as 92 % of control, the T/C [13] is reported as 94 % of control and the T/C [14] is reported as 91 % of control.
With `CCCCCCc1nc2nc(Cl)c(Cl)nc2[nH]1` the T/C [15] was 93 % of control, the T/C (dose: 25.0 mg/kg/injection, schedule: Q04DX003 (ip), vehicle: saline with Tween-80) was 105 % of control and the T/C [12] was 96 % of control. The T/C (dose: 50.0 mg/kg/injection, schedule: Q04DX003 (ip), vehicle: saline with Tween-80) was 98 % of control, the T/C [13] was 106 % of control and the T/C [16] was 95 % of control and 103 % of control. For the same compound, the T/C (dose: 150.0 mg/kg/injection, schedule: Q01DX009 (ip), vehicle: saline with Tween-80) was 98 % of control.
With `O=C(Nc1cccc2ccccc12)c1ccc(Cl)c(Cl)c1` the T/C [9] was 104 % of control, the T/C [10] was 100 % of control and the T/C [11] was 98 % of control.
In the case of `CC(=O)CC(=O)OCc1ccccc1`, the T/C [3] is reported as 93 % of control, the T/C [5] is reported as 92 % of control and the T/C [7] is reported as 95 % of control.
In the case of `OCC1(CO)CCCCO1`, the T/C [4] is reported as 96 % of control, the T/C [6] is reported as 95 % of control and the T/C [8] is reported as 101 % of control.
In the case of `CC(C)OC(=O)C(C)(OC(=O)c1ccccc1)c1ccccc1` (stereo not given), the T/C [17] is reported as 94 % of control, the T/C [18] is reported as 91 % of control and the T/C [19] is reported as 88 % of control.
With `COc1ccc(N(N=O)C(C)C)cc1` the T/C (dose: 12.5 mg/kg/injection, schedule: Q01DX009 (ip), vehicle: saline with Tween-80) was 87 % of control, the T/C [15] was 94 % of control and the T/C [12] was 87 % of control. For the same compound, the T/C [13] was 89 % of control and the T/C [14] was 92 % of control.
For `CC(Sc1ccc([N+](=O)[O-])cn1)C(=O)O` (stereo not given), the T/C (dose: 50.0 mg/kg/injection, schedule: Q01DX001 (ip), vehicle: carboxymethylcellulose (CMC)) was 107 % of control, the T/C [20] was 101 % of control and the T/C [21] was 101 % of control. The T/C [22] was 109 % of control.
With `CCN(CC)CCNc1ccc([N+](=O)[O-])c2sc3ccccc3c(=O)c12` the T/C (dose: 17.7 mg/kg/injection, schedule: Q01DX Z (ip), vehicle: carboxymethylcellulose (CMC)) was 121 % of control, the T/C (dose: 37.0 mg/kg/injection, schedule: Q01DX Z (ip), vehicle: methylcellulose (MC)) was 223 % of control and the T/C (dose: 40.0 mg/kg/injection, schedule: Q01DX Z (ip), vehicle: carboxymethylcellulose (CMC)) was 152 % of control. The T/C (dose: 56.0 mg/kg/injection, schedule: Q01DX Z (ip), vehicle: methylcellulose (MC)) was 201 % of control, the T/C (dose: 60.0 mg/kg/injection, schedule: Q01DX Z (ip), vehicle: carboxymethylcellulose (CMC)) was 156 % of control and the T/C (dose: 90.0 mg/kg/injection, schedule: Q01DX Z (ip), vehicle: carboxymethylcellulose (CMC)) was 181 % of control. For the same compound, the T/C (dose: 126.0 mg/kg/injection, schedule: Q01DX Z (ip), vehicle: methylcellulose (MC)) was 115 % of control.
`CCN(CC)C(=O)C1C2C=CC(CC2)C1C(=O)N(CC)CC` (stereo not given) was tested, and the T/C [4] was 100 % of control, the T/C [6] was 96 % of control and the T/C [8] was 96 % of control.
With `CCOC(=O)C1CN(C)CCC1=O` (stereo not given) the T/C [17] was 108 % of control, the T/C [3] was 123 % of control and the T/C [4] was 100 % of control. The T/C [18] was 101 % of control, the T/C [5] was 98 % of control and the T/C [6] was 104 % of control. The T/C [19] was 97 % of control, the T/C [7] was 96 % of control and the T/C [8] was 98 % of control.
`CCOC(=O)/C(C(C)=O)=C(/O)c1ccc(OC(F)(F)C(F)Cl)cc1OC(F)(F)C(F)Cl.CCOC(=O)/C(C(C)=O)=C(/O)c1ccc(OC(F)(F)C(F)Cl)cc1OC(F)(F)C(F)Cl.[Cu]` (stereo not given) was tested, and the T/C [9] was 88 % of control, the T/C (dose: 100.0 mg/kg/injection, schedule: Q04DX003 (ip), vehicle: Klucel (hydroxypropylcellulose) (HPC)) was 100 % of control and the T/C [10] was 94 % of control. For the same compound, the T/C (dose: 200.0 mg/kg/injection, schedule: Q04DX003 (ip), vehicle: Klucel (hydroxypropylcellulose) (HPC)) was 101 % of control and the T/C (dose: 400.0 mg/kg/injection, schedule: Q04DX003 (ip), vehicle: Klucel (hydroxypropylcellulose) (HPC)) was 101 % of control.
With `Cc1nc(N)[nH]c(=O)c1CCCNC(=O)Cc1ccccc1` the T/C (dose: 12.5 mg/kg/injection, schedule: Q01DX001 (ip), vehicle: Klucel (hydroxypropylcellulose) (HPC)) was 105 % of control, the T/C (dose: 25.0 mg/kg/injection, schedule: Q01DX001 (ip), vehicle: Klucel (hydroxypropylcellulose) (HPC)) was 97 % of control and the T/C (dose: 50.0 mg/kg/injection, schedule: Q01DX001 (ip), vehicle: Klucel (hydroxypropylcellulose) (HPC)) was 100 % of control.
For `CC(C)CNC(=O)Oc1cccc(NC(=O)N(C)C)c1`, the T/C [16] was 92 % of control, the T/C [23] was 94 % of control and the T/C [24] was 94 % of control.
In the case of `Cc1ccc2c3nc4ccccc4c-3csc2c1`, the T/C (dose: 6.25 mg/kg/injection, schedule: Q01DX009 (ip), vehicle: saline) is reported as 103 % of control, the T/C (dose: 12.5 mg/kg/injection, schedule: Q01DX009 (ip), vehicle: saline) is reported as 108 % of control and 103 % of control and the T/C (dose: 12.5 mg/kg/injection, schedule: Q04DX003 (ip), vehicle: saline) is reported as 93 % of control and 92 % of control. The T/C (dose: 25.0 mg/kg/injection, schedule: Q01DX009 (ip), vehicle: saline) was 98 % of control and 93 % of control, the T/C (dose: 25.0 mg/kg/injection, schedule: Q04DX003 (ip), vehicle: saline) was 93 % of control and 90 % of control and the T/C (dose: 35.0 mg/kg/injection, schedule: Q01DX009 (ip), vehicle: saline) was 101 % of control and 86 % of control. The T/C (dose: 50.0 mg/kg/injection, schedule: Q04DX003 (ip), vehicle: saline) was 87 % of control and the T/C (dose: 55.0 mg/kg/injection, schedule: Q01DX009 (ip), vehicle: saline) was 93 % of control and 92 % of control.
For `O=C1OC(c2ccc(Cl)cc2)=N/C1=C\c1ccc(Cl)cc1`, the T/C [13] was 91 % of control, the T/C [14] was 94 % of control and the T/C (dose: 400.0 mg/kg/injection, schedule: Q01DX009 (ip), vehicle: saline with Tween-80) was 91 % of control.
For `CC(C)(C)c1ccc(OS(=O)(=O)c2cccc([N+](=O)[O-])c2)cc1`, the T/C [16] was 104 % of control, the T/C [23] was 99 % of control and the T/C [24] was 106 % of control.
In the case of `CCCCCCCC(C(=O)OCC)C(=O)OCC`, the T/C [20] is reported as 103 % of control, the T/C [21] is reported as 100 % of control and the T/C [22] is reported as 100 % of control.
With `O=C(COc1cc(Cl)c(Cl)cc1Cl)OCCN(CCOC(=O)COc1cc(Cl)c(Cl)cc1Cl)C(=O)COc1ccc(Cl)cc1` the T/C (dose: 100.0 mg/kg/injection, schedule: Q01DX009 (ip), vehicle: other) was 92 % of control, the T/C (dose: 200.0 mg/kg/injection, schedule: Q01DX009 (ip), vehicle: other) was 92 % of control and the T/C (dose: 400.0 mg/kg/injection, schedule: Q01DX009 (ip), vehicle: other) was 102 % of control.
